In paper PMC9011347, “Small-Molecule Inhibitors Targeting Lipolysis in Human Adipocytes” (Journal of the American Chemical Society, 2022):
Several values for one entry are separate records, joined by “and”; a condition that tells them apart may be missing. Equal values may be shown once. Read-outs that look alike come from different tables or passages of the source.

Key:
Assay type in all cases: biochemical
[1] = molecular target: T1, mouse ATGL T146G (Mus musculus, UniProt Q8BJ56, T146G); assay: TAG hydrolase assay, humanized mouse ATGL variants; settings: variant T146G, NG-497 (10 μM) or Atglistatin (10 μM)
T1 construct: host or cells: Expi293 cells, cell lysate
T1 sequence (Q8BJ56 whole entry T146G): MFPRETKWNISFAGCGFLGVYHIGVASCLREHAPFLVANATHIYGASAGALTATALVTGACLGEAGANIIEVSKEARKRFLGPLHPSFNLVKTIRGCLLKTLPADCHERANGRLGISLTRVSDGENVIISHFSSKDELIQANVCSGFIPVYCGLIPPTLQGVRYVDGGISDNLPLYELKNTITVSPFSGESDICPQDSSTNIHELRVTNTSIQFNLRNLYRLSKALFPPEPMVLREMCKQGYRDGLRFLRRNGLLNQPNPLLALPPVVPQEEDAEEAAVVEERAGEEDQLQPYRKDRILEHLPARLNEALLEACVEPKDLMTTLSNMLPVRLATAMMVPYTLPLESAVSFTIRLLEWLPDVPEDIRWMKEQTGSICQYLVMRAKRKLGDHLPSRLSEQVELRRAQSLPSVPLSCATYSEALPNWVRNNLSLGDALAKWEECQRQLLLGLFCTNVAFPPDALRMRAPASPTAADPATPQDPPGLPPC
Protocol: (§1) Figure 5 Analysis of chimeric proteins comprising human and mouse ATGL. (a) Schematic view of the minimal active domain of wild-type and chimeric ATGL variants (c1–c9). Nonidentical aa are indicated in blue and red for mouse and human ATGL, respectively. ATGL variants were expressed in Expi293 cells and TAG hydrolase activity was determined in cell lysates in the presence or absence of NG-497 (10 μM) and Atglistatin (10 μM), respectively. Inhibition of ATGL variants by respective inhibitors (tick mark) and lack of inhibition (cross) is indicated at the right edge. The expression of all ATGL variants was confirmed by Western blotting analysis (Figure S6). (b) Dose-dependent inhibition of human ATGL (aa 1–288) and c1 (human aa 1–158 and mouse aa 159–288) by NG-497. (c) Dose-dependent inhibition of mouse ATGL (aa 1–288) and c2 (mouse aa 1–158 and human aa 159–288) by Ai. IC50 values are shown in the insets. Data are presented as relative inhibition of respective DMSO controls and are indicated as mean ± SD. (d) 3D homology model of the minimal active domain of mouse ATGL (M1–L254) depicted as a cartoon. Residues 1–178 are in blue, and residues 179–254 are in gray. S47 and D166 comprising the active site are represented as green sticks. T101, C106, R109, N111, and S133 are colored in orange, A60, N68, I69, T93, C97, and T146 are colored in magenta. TEXT PRINTED IN THE PICTURE: (b) NG-497: IC50 [μM] (human): 1.3±0.1; IC50 [μM] (c1): 1.3±0.1 | (b) Ai: IC50 [μM] (human): n.det.; IC50 [μM] (c1): n.det. | (c) NG-497: IC50 [μM] (mouse): n.det.; IC50 [μM] (c2): n.det. | (c) Ai: IC50 [μM] (mouse): 2.5±0.3; IC50 [μM] (c2): 2.4±0.1 […]
(§2) The region between aa 60 and 146 of human and mouse ATGL comprises 12 nonidentical aa. We generated 3D homology models for the minimal active domain of mouse ATGL to obtain more detailed insight into the topology of the relevant region (Figure 5d). Based on this model, aa T101, C106, R109, N111, and S133 locate at peripheral (loop) regions (indicated in orange, Figure 5d). […] For all other nonidentical aa (indicated in magenta, Figure 5d), we generated variants with single aa substitutions. The humanized variants A60V, N68K, T93I, and C97F were inactivated by Ai but not NG-497 (Figure 5a).
(§3) Experimental details, materials, and methods
(§4) Expression of recombinant ATGL constructs and preparation of cell lysates. Expi293 cells were cultivated in Expi293 Expression Medium (GIBCO, Thermo Fisher Scientific, Waltham, USA) at standard conditions (37°C, 5% CO2, 95% humidified atmosphere, 125 rpm). DNA constructs containing ATGL from different species and chimeric ATGL variants in pcDNA3.1(+)myc-His C Vector were obtained from BioCat GmbH (Heidelberg, Germany). Cells were transfected with ExpiFectamine293 Transfection Kit (GIBCO) in Opti-Mem reduced serum medium (GIBCO) according to the manufacturer’s instructions. After 48 h, cells were harvested by centrifugation and washed three times with PBS. Cells were disrupted in buffer A (0.25 M sucrose, 1 mM EDTA, 1 mM dithiothreitol, 20µg/ml leupeptin, 2 µg/ml antipain, 1 µg/ml pepstatin, pH 7.0) by sonication (Virsonic 475, Virtis, Gardiner, USA). Nuclei and debris were removed by centrifugation at 1,000 g and 4°C for 10 min. Protein concentrations were determined using Bio-Rad protein assay (Bio-Rad 785, Bio-Rad Laboratories, Munich, Germany) using BSA as standard.
(§5) Expression and purification of mouse CGI-58. CGI-58 was expressed and purified as described 1. In brief, the coding sequence of mouse Cgi-58 was cloned into pHis-Sumo and co-transformed with the plasmid pTf16 expressing the chaperone Tig into E. coli BL21(DE3). Cells were cultured overnight at 37°C and 180 rpm in the presence of 40 µg/ml kanamycin and 34 µg/ml chloramphenicol. Thereafter, cells were transferred into fresh LB medium, grown until OD600 of 0.6, and expression was induced by the addition of 0.5 mM IPTG. After overnight incubation at 30°C, cells were harvested at 4,500 x g and 4°C for 20 min, […]

[2] = molecular target: T2, mouse ATGL I69F (Mus musculus, UniProt Q8BJ56, I69F); assay: TAG hydrolase assay, humanized mouse ATGL variants; settings: variant I69F, NG-497 (10 μM) or Atglistatin (10 μM)
T2 construct: host or cells: Expi293 cells, cell lysate
T2 sequence (Q8BJ56 whole entry I69F): as the sequence (Q8BJ56 whole entry T146G) above, with I69F, G146T counted along it
Protocol: as §1, §2, §3, §4, §5

[3] = molecular target: T3, mouse ATGL (aa 1–288) (Mus musculus, UniProt Q8BJ56); assay: TAG hydrolase assay, wild-type and chimeric ATGL variants; settings: wild-type mouse ATGL (aa 1–288)
T3 construct: mouse ATGL (aa 1–288); host or cells: Expi293 cells, crude lysate
T3 sequence (Q8BJ56 1-288): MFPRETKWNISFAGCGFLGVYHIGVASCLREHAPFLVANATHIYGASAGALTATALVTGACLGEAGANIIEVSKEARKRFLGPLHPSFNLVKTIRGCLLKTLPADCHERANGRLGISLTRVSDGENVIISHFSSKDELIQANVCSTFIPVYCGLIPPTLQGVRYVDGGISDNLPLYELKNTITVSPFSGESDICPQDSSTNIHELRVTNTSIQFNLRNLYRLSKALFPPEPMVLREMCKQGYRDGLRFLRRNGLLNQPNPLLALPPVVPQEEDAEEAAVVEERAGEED
Source text: (§6) Since experimental three-dimensional (3D) structures for ATGL are currently not available, we utilized chimeric variants of mouse and human ATGL for the identification of binding sites. The constructs c1–c9 (Figure 5a) comprised the N-terminal […] of ATGL, which are sufficient to retain enzymatic activity.[50] In variants c1 and c2, exchange of the N-terminal 158 aa between human and mouse ATGL switched inhibitor reactivity.
(§7) Figure 5 Analysis of chimeric proteins comprising human and mouse ATGL. (a) Schematic view of the minimal active domain of wild-type and chimeric ATGL variants (c1–c9). Nonidentical aa are indicated in blue and red for mouse and human ATGL, respectively. ATGL variants were expressed in Expi293 cells and TAG hydrolase activity was determined in cell lysates in the presence or absence of NG-497 (10 μM) and Atglistatin (10 μM), respectively. Inhibition of ATGL variants by respective inhibitors (tick mark) and lack of inhibition (cross) is indicated at the right edge. The expression of all ATGL variants was confirmed by Western blotting analysis (Figure S6). […]
(§8) Expression of recombinant ATGL constructs and preparation of cell lysates. […] Protein concentrations were determined using Bio-Rad protein assay (Bio-Rad 785, Bio-Rad Laboratories, Munich, Germany) using BSA as standard. […]

[4] = molecular target: T4, human ATGL (aa 1–288) (Homo sapiens, UniProt Q96AD5); assay: TAG hydrolase assay, wild-type and chimeric ATGL variants in Expi293 lysates
T4 construct: human ATGL (aa 1–288); host or cells: Expi293 cells, crude lysate
T4 sequence (Q96AD5 1-288): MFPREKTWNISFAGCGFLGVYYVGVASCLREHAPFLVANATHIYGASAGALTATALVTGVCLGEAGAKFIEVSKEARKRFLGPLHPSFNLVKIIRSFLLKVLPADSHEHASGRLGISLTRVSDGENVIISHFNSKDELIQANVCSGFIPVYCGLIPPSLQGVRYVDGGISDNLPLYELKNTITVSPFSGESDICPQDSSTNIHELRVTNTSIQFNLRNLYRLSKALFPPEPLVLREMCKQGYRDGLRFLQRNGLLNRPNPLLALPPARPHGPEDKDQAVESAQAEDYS
Source text: as §6, §7, §8

Structure (SMILES)	inhibition of TAG hydrolase activity [1]	inhibition of TAG hydrolase activity [2]	IC50 ([3]; read-out: IC50)	IC50 [4]	IC50 [3]	IC50 ([4]; read-out: IC50) [nM]
CN(C)C(=O)Nc1cccc(-c2ccc(N(C)C)cc2)c1 [Atglistatin, reference compound]	neither inhibited	neither inhibited	~2500 nM and 2500 nM	ineffective		
CCOc1ccc(-c2cc(OC)cc(C(=O)OC(C)C)n2)cc1 [NG-497]	neither inhibited	neither inhibited			ineffective	1300
